From PubChem BioAssay AID328 (DTP/NCI, 2004)
Where “and” joins values, the source holds several entries; their conditions need not be identical. Equal entries are not always repeated. Toxic doses and inconclusive results are not listed.

System: BDF1 mice, P388 leukemia ip, median survival T/C
Test: NCI In Vivo Anticancer Drug Screen. Data for tumor model P388 Leukemia (intraperitoneal) in B6D2F1 (BDF1) mice
Settings: endpoint: median survival time, higher = longer survival
How it was run: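 Each value expresses how treatment altered survival: treated-mouse outcome over vehicle-mouse outcome, both groups bearing the transplanted tumour.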

[1] = dose: 100.0 mg/kg/injection, schedule: Q01DX009 (ip), vehicle: saline
[2] = dose: 100.0 mg/kg/injection, schedule: Q04DX003 (ip), vehicle: saline
[3] = dose: 200.0 mg/kg/injection, schedule: Q01DX009 (ip), vehicle: saline
[4] = dose: 200.0 mg/kg/injection, schedule: Q04DX003 (ip), vehicle: saline
[5] = dose: 400.0 mg/kg/injection, schedule: Q04DX003 (ip), vehicle: saline
[6] = dose: 50.0 mg/kg/injection, schedule: Q01DX009 (ip), vehicle: saline with Tween-80
[7] = dose: 100.0 mg/kg/injection, schedule: Q01DX009 (ip), vehicle: saline with Tween-80
[8] = dose: 200.0 mg/kg/injection, schedule: Q01DX009 (ip), vehicle: saline with Tween-80
[9] = dose: 12.5 mg/kg/injection, schedule: Q01DX009 (ip), vehicle: saline with Tween-80
[10] = dose: 25.0 mg/kg/injection, schedule: Q01DX009 (ip), vehicle: saline with Tween-80
[11] = dose: 25.0 mg/kg/injection, schedule: Q01DX009 (ip), vehicle: saline
[12] = dose: 25.0 mg/kg/injection, schedule: Q04DX003 (ip), vehicle: saline
[13] = dose: 50.0 mg/kg/injection, schedule: Q01DX009 (ip), vehicle: saline
[14] = dose: 50.0 mg/kg/injection, schedule: Q04DX003 (ip), vehicle: saline
[15] = dose: 400.0 mg/kg/injection, schedule: Q01DX009 (ip), vehicle: saline with Tween-80
[16] = dose: 100.0 mg/kg/injection, schedule: Q01DX009 (ip), vehicle: Klucel (hydroxypropylcellulose) (HPC)
[17] = dose: 100.0 mg/kg/injection, schedule: Q04DX003 (ip), vehicle: Klucel (hydroxypropylcellulose) (HPC)
[18] = dose: 200.0 mg/kg/injection, schedule: Q04DX003 (ip), vehicle: Klucel (hydroxypropylcellulose) (HPC)
[19] = dose: 400.0 mg/kg/injection, schedule: Q04DX003 (ip), vehicle: Klucel (hydroxypropylcellulose) (HPC)
[20] = dose: 50.0 mg/kg/injection, schedule: Q01DX010 (ip), vehicle: saline
[21] = dose: 100.0 mg/kg/injection, schedule: Q01DX010 (ip), vehicle: saline
[22] = dose: 100.0 mg/kg/injection, schedule: Q04DX003 (ip), vehicle: saline with Tween-80
[23] = dose: 200.0 mg/kg/injection, schedule: Q04DX003 (ip), vehicle: saline with Tween-80
[24] = dose: 400.0 mg/kg/injection, schedule: Q04DX003 (ip), vehicle: saline with Tween-80

SMILES: CCC(=O)NC
- T/C [1]: 122 % of control
- T/C [2]: 100 % of control
- T/C [3]: 100 % of control
- T/C [4]: 104 % of control
- T/C (dose: 400.0 mg/kg/injection, schedule: Q01DX009 (ip), vehicle: saline): 109 % of control
- T/C [5]: 100 % of control

SMILES: CN(C)C(=S)SCC(=O)NC(CO)C(=O)O (stereo not given)
- T/C [6]: 98 % of control
- T/C [7]: 98 % of control
- T/C [8]: 89 % of control

SMILES: S=C1SCN(CCc2ccccc2)CN1CCc1ccccc1
- T/C (dose: 6.25 mg/kg/injection, schedule: Q01DX009 (ip), vehicle: saline with Tween-80): 111 % of control
- T/C [9]: 102 % of control
- T/C [10]: 104 % of control
- T/C [6]: 100 % of control

SMILES: O=C(O)C(=O)c1ccc(-c2ccccc2)cc1
- T/C [10]: 90 % of control
- T/C [6]: 100 % of control
- T/C [7]: 113 % of control
- T/C (dose: 150.0 mg/kg/injection, schedule: Q01DX009 (ip), vehicle: saline with Tween-80): 110 % of control

SMILES: Cc1cc2nc3ccc(=[N+](C)C)cc-3sc2cc1N
- T/C [11]: 90 % of control and 113 % of control
- T/C [12]: 109 % of control and 96 % of control
- T/C [13]: 100 % of control and 113 % of control
- T/C [14]: 114 % of control
- T/C [2]: 121 % of control

SMILES: CCOC(=O)/C=C(/CC(=O)OCC)OCC
- T/C [12]: 106 % of control
- T/C [14]: 100 % of control
- T/C [2]: 115 % of control
- T/C [4]: 106 % of control
- T/C [5]: 112 % of control

SMILES: CC(=O)N(/N=C/c1cc(C=O)n(-c2ccccc2)n1)c1ccccc1
- T/C [6]: 86 % of control
- T/C [7]: 90 % of control
- T/C [8]: 105 % of control

SMILES: COC(=O)CCCc1ccc(OC)c(OC)c1
- T/C [9]: 96 % of control
- T/C [10]: 100 % of control
- T/C [6]: 97 % of control and 123 % of control
- T/C [7]: 97 % of control and 113 % of control
- T/C [8]: 105 % of control

SMILES: O=C1c2ccccc2C2N1CCCN2C(=O)c1sc2ccccc2c1Cl (stereo not given)
- T/C [6]: 88 % of control
- T/C [7]: 86 % of control
- T/C [8]: 94 % of control

SMILES: CCCC(Sc1nc(N)nc2nc[nH]c12)C(=O)O (stereo not given)
- T/C (dose: 100.0 mg/kg/injection, schedule: Q01DX009 (ip), vehicle: saline sonified): 115 % of control
- T/C (dose: 100.0 mg/kg/injection, schedule: Q04DX003 (ip), vehicle: saline sonified): 109 % of control
- T/C (dose: 200.0 mg/kg/injection, schedule: Q04DX003 (ip), vehicle: saline sonified): 118 % of control
- T/C (dose: 400.0 mg/kg/injection, schedule: Q01DX009 (ip), vehicle: saline sonified): 100 % of control
- T/C (dose: 400.0 mg/kg/injection, schedule: Q04DX003 (ip), vehicle: saline sonified): 109 % of control

SMILES: CC12CCC3C(CCC4=CC(O)CCC43C=O)C1(O)CCC2c1ccc(=O)oc1 (stereo not given)
- T/C (dose: 0.11 mg/kg/injection, schedule: Q01DX009 (ip), vehicle: saline + alcohol): 100 % of control
- T/C (dose: 0.33 mg/kg/injection, schedule: Q01DX009 (ip), vehicle: saline + alcohol): 95 % of control
- T/C (dose: 1.0 mg/kg/injection, schedule: Q01DX009 (ip), vehicle: saline + alcohol): 95 % of control
- T/C (dose: 3.0 mg/kg/injection, schedule: Q01DX010 (ip), vehicle: carboxymethylcellulose (CMC)): 95 % of control

SMILES: Cn1c2c(sc1=O)CCC2
- T/C [14]: 100 % of control
- T/C [2]: 87 % of control
- T/C [4]: 100 % of control

SMILES: CS(=O)(=O)CC(O)(c1ccccc1)c1cccnc1 (stereo not given)
- T/C [6]: 98 % of control
- T/C [7]: 104 % of control
- T/C [8]: 98 % of control

SMILES: COc1ccc(C(=O)C[N+](=O)[O-])cc1
- T/C [7]: 110 % of control
- T/C [8]: 100 % of control
- T/C [15]: 100 % of control

SMILES: CC1CN(Cc2ccccc2O)CC(C)N1 (stereo not given)
- T/C (dose: 6.25 mg/kg/injection, schedule: Q04DX003 (ip), vehicle: water): 103 % of control
- T/C (dose: 12.5 mg/kg/injection, schedule: Q04DX003 (ip), vehicle: water): 103 % of control
- T/C (dose: 25.0 mg/kg/injection, schedule: Q04DX003 (ip), vehicle: water): 103 % of control
- T/C (dose: 50.0 mg/kg/injection, schedule: Q04DX003 (ip), vehicle: water): 109 % of control
- T/C (dose: 100.0 mg/kg/injection, schedule: Q04DX003 (ip), vehicle: water): 97 % of control

SMILES: O=C(CC(=O)C(F)(F)C(F)(F)C(F)(F)F)c1csc2ccccc12
- T/C (dose: 6.25 mg/kg/injection, schedule: Q01DX009 (ip), vehicle: Klucel (hydroxypropylcellulose) (HPC)): 91 % of control
- T/C (dose: 12.5 mg/kg/injection, schedule: Q01DX009 (ip), vehicle: Klucel (hydroxypropylcellulose) (HPC)): 95 % of control
- T/C (dose: 25.0 mg/kg/injection, schedule: Q01DX009 (ip), vehicle: Klucel (hydroxypropylcellulose) (HPC)): 95 % of control
- T/C [10]: 95 % of control
- T/C (dose: 50.0 mg/kg/injection, schedule: Q01DX009 (ip), vehicle: Klucel (hydroxypropylcellulose) (HPC)): 100 % of control
- T/C [6]: 100 % of control
- T/C [16]: 115 % of control
- T/C [7]: 91 % of control
- T/C [1]: 115 % of control
- T/C [17]: 104 % of control
- T/C [18]: 104 % of control
- T/C [19]: 109 % of control

SMILES: O=[n+]1c2c(n([O-])c3ccccc31)-c1cccc3cccc-2c13
- T/C (dose: 25.0 mg/kg/injection, schedule: Q01DX010 (ip), vehicle: saline): 95 % of control
- T/C [20]: 91 % of control
- T/C [21]: 91 % of control

SMILES: CCOC(=O)CNC(c1ccccc1)(c1ccccc1)c1ccccc1
- T/C [16]: 95 % of control
- T/C [17]: 109 % of control
- T/C (dose: 200.0 mg/kg/injection, schedule: Q01DX009 (ip), vehicle: Klucel (hydroxypropylcellulose) (HPC)): 91 % of control
- T/C [18]: 113 % of control
- T/C (dose: 400.0 mg/kg/injection, schedule: Q01DX009 (ip), vehicle: Klucel (hydroxypropylcellulose) (HPC)): 108 % of control
- T/C [19]: 104 % of control

SMILES: CCCCC(CC)COC(OCC(CC)CCCC)C(OCC(CC)CCCC)OCC(CC)CCCC (stereo not given)
- T/C [7]: 100 % of control
- T/C [8]: 100 % of control
- T/C [15]: 90 % of control

SMILES: Cc1ccc(NC(=O)COc2cc(Cl)c(Cl)cc2Cl)cc1C
- T/C [22]: 90 % of control
- T/C [23]: 90 % of control
- T/C [24]: 86 % of control

SMILES: CCOC(=O)C1=C(Nc2ccc([N+](=O)[O-])cc2)CCCC1
- T/C [13]: 87 % of control

SMILES: COC(=O)CCN1CC1
- T/C (dose: 100.0 mg/kg/injection, schedule: Q01DX001 (ip), vehicle: saline with Tween-80): 101 % of control
- T/C (dose: 200.0 mg/kg/injection, schedule: Q01DX001 (ip), vehicle: saline with Tween-80): 107 % of control
- T/C (dose: 400.0 mg/kg/injection, schedule: Q01DX001 (ip), vehicle: saline with Tween-80): 92 % of control

SMILES: Cc1c(C(=O)O)cc2n(c1=O)Cc1cc3ccccc3nc1-2
- T/C [13]: 95 % of control
- T/C [14]: 92 % of control
- T/C [1]: 113 % of control
- T/C [2]: 100 % of control
- T/C [3]: 100 % of control
- T/C [4]: 96 % of control

SMILES: C1=CN(c2ccc(/C=C\c3ccnc4ccccc34)cc2)C=CN1c1ccc(/C=C\c2ccnc3ccccc23)cc1
- T/C [6]: 119 % of control

SMILES: O=C1CN(c2ccccc2)CC(=O)N2Cc3ccccc3CN12
- T/C (dose: 100.0 mg/kg/injection, schedule: Q01DX005 (ip), vehicle: saline with Tween-80): 101 % of control

SMILES: CCN(CC)CCNc1ccc(C)c2sc3ccccc3c(=O)c12
- T/C (dose: 12.5 mg/kg/injection, schedule: Q01DX009 (ip), vehicle: saline): 97 % of control
- T/C [11]: 109 % of control
- T/C [20]: 150 % of control and 170 % of control
- T/C [1]: 158 % of control
- T/C [21]: 90 % of control

SMILES: CC(C)=CCCC(C)C/C=N\O (stereo not given)
- T/C [9]: 107 % of control
- T/C [10]: 107 % of control
- T/C [6]: 96 % of control
- T/C [22]: 109 % of control
- T/C [23]: 113 % of control
- T/C [24]: 109 % of control

SMILES: CN(C)c1ccc(Nc2c3ccccc3nc3ccccc23)cc1
- T/C (dose: 36.0 mg/kg/injection, schedule: Q01DX010 (ip), vehicle: saline): 159 % of control and 172 % of control
- T/C (dose: 54.0 mg/kg/injection, schedule: Q01DX010 (ip), vehicle: saline): 159 % of control and 172 % of control
- T/C (dose: 80.0 mg/kg/injection, schedule: Q01DX010 (ip), vehicle: saline): 213 % of control and 218 % of control
- T/C (dose: 120.0 mg/kg/injection, schedule: Q01DX010 (ip), vehicle: saline): 268 % of control
